Test system: 435261-313-R-J1-PDC tumor spheroid viability
Assay: Anticancer human tumor 435261-313-R-J1-PDC patient-derived colon adenocarcinoma cell line growth inhibition [PI3K]
Conditions: spheroids with HUVEC and MSC; for IC50: curve of first compound; for viability, T/C: stronger effect = lower value
How it was run: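 Combination activity was assessed by viability in multicellular tumor spheroids carrying HUVEC and MSC components. Agents were tested with PI3K inhibitors from a Cmax-based top dose (or 10 microM) downward in half-log increments.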

[1] = second compound 0.00316 µM, first compound 0.0316 µM
[2] = second compound 0.00316 µM, first compound 0.1 µM
[3] = second compound 0.00316 µM, first compound 0.316 µM
[4] = second compound 0.00316 µM, first compound 1 µM
[5] = second compound 0.00316 µM, first compound 3.16 µM
[6] = second compound 0.00316 µM, first compound 10 µM
[7] = second compound 0.01 µM, first compound 0.0316 µM
[8] = second compound 0.01 µM, first compound 0.1 µM
[9] = second compound 0.01 µM, first compound 0.316 µM
[10] = second compound 0.01 µM, first compound 1 µM
[11] = second compound 0.01 µM, first compound 3.16 µM
[12] = second compound 0.01 µM, first compound 10 µM
[13] = second compound 0.0316 µM, first compound 0.0316 µM
[14] = second compound 0.0316 µM, first compound 0.1 µM
[15] = second compound 0.0316 µM, first compound 0.316 µM
[16] = second compound 0.0316 µM, first compound 1 µM
[17] = second compound 0.0316 µM, first compound 3.16 µM
[18] = second compound 0.0316 µM, first compound 10 µM
[19] = second compound 0.1 µM, first compound 0.0316 µM
[20] = second compound 0.1 µM, first compound 0.1 µM
[21] = second compound 0.1 µM, first compound 0.316 µM
[22] = second compound 0.1 µM, first compound 1 µM
[23] = second compound 0.1 µM, first compound 3.16 µM
[24] = second compound 0.1 µM, first compound 10 µM
[25] = second compound 0.316 µM, first compound 0.0316 µM
[26] = second compound 0.316 µM, first compound 0.1 µM
[27] = second compound 0.316 µM, first compound 0.316 µM
[28] = second compound 0.316 µM, first compound 1 µM
[29] = second compound 0.316 µM, first compound 3.16 µM
[30] = second compound 0.316 µM, first compound 10 µM
[31] = second compound 1 µM, first compound 0.0316 µM
[32] = second compound 1 µM, first compound 0.1 µM
[33] = second compound 1 µM, first compound 0.316 µM
[34] = second compound 1 µM, first compound 1 µM
[35] = second compound 1 µM, first compound 3.16 µM
[36] = second compound 1 µM, first compound 10 µM
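Further: spheroids exposed to compounds for 7 days.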

For C#Cc1c(F)ccc2cc(O)cc(-c3ncc4c(N5CC6CCC(C5)N6)nc(OCC56CCCN5CC(F)C6)nc4c3F)c12 (stereo unspecified) + CC(Nc1ccc2c(c1)OCCn1cc(N3C(=O)OCC3C(F)F)nc1-2)C(N)=O, the IC50 (second compound 0.00316 µM) was 3730 nM, the IC50 (second compound 0.01 µM) was 2040 nM and the IC50 (second compound 0.0316 µM) was 1920 nM. It also gave an IC50 (second compound 0.1 µM) of 85.9 nM, an IC50 (second compound 0.316 µM) of less than 31.6 nM and an IC50 (second compound 1 µM) of less than 31.6 nM. The viability, T/C [1] was 73.9%, the viability, T/C [2] was 91.2% and the viability, T/C [3] was 85.6%. The viability, T/C [4] was 98.2%, the viability, T/C [5] was 54.1% and the viability, T/C [6] was 25.7%. The viability, T/C [7] was 74.4%, the viability, T/C [8] was 93.9% and the viability, T/C [9] was 90.7%. The viability, T/C [10] was 65.8%, the viability, T/C [11] was 41.1% and the viability, T/C [12] was 28.8%. The viability, T/C [13] was 54.5%, the viability, T/C [14] was 65.7% and the viability, T/C [15] was 66.2%. For the same compound, the viability, T/C [16] was 76.5%, the viability, T/C [17] was 38.1% and the viability, T/C [18] was 13.8%. The viability, T/C [19] was 43.9%, the viability, T/C [20] was 57% and the viability, T/C [21] was 47.4%. It also gave a viability, T/C [22] of 33.2%, a viability, T/C [23] of 22.6% and a viability, T/C [24] of 12.3%. For the same compound, the viability, T/C [25] was 21.7%, the viability, T/C [26] was 21.6% and the viability, T/C [27] was 26.5%. It also gave a viability, T/C [28] of 17.5%, a viability, T/C [29] of 15.1% and a viability, T/C [30] of 7.18%. For the same compound, the viability, T/C [31] was 18.9%, the viability, T/C [32] was 14.5% and the viability, T/C [33] was 13.1%. For the same compound, the viability, T/C [34] was 12%, the viability, T/C [35] was 7.99% and the viability, T/C [36] was 3.34%.

Compound C[C@@H](NC(=O)c1ncnc(N)c1Cl)c1ncc(C(=O)Nc2cc(C(F)(F)F)c(Cl)cn2)s1 + CC(Nc1ccc2c(c1)OCCn1cc(N3C(=O)OCC3C(F)F)nc1-2)C(N)=O has an IC50 (second compound 0.00316 µM) greater than 10000 nM, an IC50 (second compound 0.01 µM) greater than 10000 nM and an IC50 (second compound 0.0316 µM) greater than 10000 nM. The IC50 (second compound 0.1 µM) was 4550 nM, the IC50 (second compound 0.316 µM) was less than 31.6 nM and the IC50 (second compound 1 µM) was less than 31.6 nM. The viability, T/C [1] was 168%, the viability, T/C [2] was 171% and the viability, T/C [3] was 154%. The viability, T/C [4] was 148%, the viability, T/C [5] was 158% and the viability, T/C [6] was 116%. It also gave a viability, T/C [7] of 136%, a viability, T/C [8] of 152% and a viability, T/C [9] of 191%. It also gave a viability, T/C [10] of 135%, a viability, T/C [11] of 140% and a viability, T/C [12] of 108%. For the same compound, the viability, T/C [13] was 99.4%, the viability, T/C [14] was 126% and the viability, T/C [15] was 155%. For the same compound, the viability, T/C [16] was 158%, the viability, T/C [17] was 112% and the viability, T/C [18] was 85.4%. For the same compound, the viability, T/C [19] was 74.7%, the viability, T/C [20] was 72% and the viability, T/C [21] was 115%. It also gave a viability, T/C [22] of 77.2%, a viability, T/C [23] of 58.6% and a viability, T/C [24] of 32.5%. The viability, T/C [25] was 51.3%, the viability, T/C [26] was 47.6% and the viability, T/C [27] was 36.9%. For the same compound, the viability, T/C [28] was 39.3%, the viability, T/C [29] was 35.8% and the viability, T/C [30] was 9.29%. The viability, T/C [31] was 29.2%, the viability, T/C [32] was 33.5% and the viability, T/C [33] was 21.3%. It also gave a viability, T/C [34] of 27%, a viability, T/C [35] of 23% and a viability, T/C [36] of 6.01%.

In the case of C=CC(=O)N1CCN(c2nc(=O)n(-c3c(C)ccnc3C(C)C)c3nc(-c4c(O)cccc4F)c(F)cc23)C(C)C1 (stereo unspecified) + COc1c(OCCCN2CCOCC2)ccc2c3n(c(=NC(=O)c4cnc(N)nc4)nc12)CCN3, the IC50 (second compound 0.00316 µM) is reported as greater than 10000 nM, the IC50 (second compound 0.01 µM) is reported as less than 31.6 nM and the IC50 (second compound 0.0316 µM) is reported as less than 31.6 nM. It also gave an IC50 (second compound 0.1 µM) of less than 31.6 nM, an IC50 (second compound 0.316 µM) of less than 31.6 nM and an IC50 (second compound 1 µM) of less than 31.6 nM. The viability, T/C [1] was 86.8%, the viability, T/C [2] was 78.2% and the viability, T/C [3] was 99%. The viability, T/C [4] was 63.5%, the viability, T/C [5] was 101% and the viability, T/C [6] was 97.9%. The viability, T/C [7] was 45.5%, the viability, T/C [8] was 56.6% and the viability, T/C [9] was 47.7%. It also gave a viability, T/C [10] of 64.7%, a viability, T/C [11] of 60.2% and a viability, T/C [12] of 85%. The viability, T/C [13] was 25.5%, the viability, T/C [14] was 36.7% and the viability, T/C [15] was 29%. For the same compound, the viability, T/C [16] was 30.6%, the viability, T/C [17] was 26.3% and the viability, T/C [18] was 30.6%. The viability, T/C [19] was 15.9%, the viability, T/C [20] was 16.5% and the viability, T/C [21] was 17.5%. It also gave a viability, T/C [22] of 18.7%, a viability, T/C [23] of 15.4% and a viability, T/C [24] of 16.1%. For the same compound, the viability, T/C [25] was 8.2%, the viability, T/C [26] was 8.82% and the viability, T/C [27] was 7.92%. It also gave a viability, T/C [28] of 8.17%, a viability, T/C [29] of 6.9% and a viability, T/C [30] of 5.27%. It also gave a viability, T/C [31] of 4.55%, a viability, T/C [32] of 3.78% and a viability, T/C [33] of 3.56%. The viability, T/C [34] was 3.98%, the viability, T/C [35] was 3.29% and the viability, T/C [36] was 2.04%.

From PubChem BioAssay AID1963976 (Molecular Pharmacology Branch, DTP, NCI, 2024)
